Measured values published in PubChem BioAssay (NCI).
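In this assay, cells in 96-well plates receive the compound at five concentrations for 48 hours. Endpoints are linearly interpolated between the surrounding concentrations. GI50 = concentration required for 50% inhibition of growth. Definition used: TGI = concentration required for complete inhibition of growth.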

Assays:
Test in all cases: growth of human tumour cells (NCI), 48 h
[1] = tested on: 786-0 renal
[2] = tested on: A498 renal
[3] = tested on: A549 NSCLC
[4] = tested on: BT-549 breast
[5] = tested on: CAKI-1 renal
[6] = tested on: CCRF-CEM leukemia
[7] = tested on: COLO 205 colon
[8] = tested on: DU-145 prostate
[9] = tested on: EKVX NSCLC
[10] = tested on: HCC-2998 colon
[11] = tested on: HCT-116 colon
[12] = tested on: HCT-15 colon
[13] = tested on: HL-60(TB) leukemia
[14] = tested on: HOP-62 NSCLC
[15] = tested on: HOP-92 NSCLC
[16] = tested on: HS 578T breast
[17] = tested on: HT29 colon
[18] = tested on: IGROV1 ovarian
[19] = tested on: K-562 leukemia
[20] = tested on: KM12 colon
[21] = tested on: LOX IMVI melanoma
[22] = tested on: M14 melanoma
[23] = tested on: MCF7 breast
[24] = tested on: MDA-MB-231 breast
[25] = tested on: MDA-MB-435
[26] = tested on: MOLT-4 leukemia
[27] = tested on: NCI-H226 lung
[28] = tested on: NCI-H23 lung
[29] = tested on: NCI-H460 lung
[30] = tested on: NCI-H522 lung
[31] = tested on: NCI/ADR-RES ovarian
[32] = tested on: OVCAR-3 ovarian
[33] = tested on: OVCAR-4 ovarian
[34] = tested on: OVCAR-5 ovarian
[35] = tested on: OVCAR-8 ovarian
[36] = tested on: PC-3 prostate
[37] = tested on: RPMI-8226 leukemia
[38] = tested on: RXF 393 renal
[39] = tested on: SF-268 CNS
[40] = tested on: SF-295 CNS
[41] = tested on: SF-539 CNS
[42] = tested on: SK-MEL-2 melanoma
[43] = tested on: SK-MEL-28 melanoma
[44] = tested on: SK-MEL-5 melanoma
[45] = tested on: SK-OV-3 ovarian
[46] = tested on: SN12C renal
[47] = tested on: SNB-19 CNS
[48] = tested on: SNB-75 CNS
[49] = tested on: SR leukemia
[50] = tested on: SW-620 colon
[51] = tested on: T-47D breast
[52] = tested on: TK-10 renal
[53] = tested on: U251 CNS
[54] = tested on: UACC-257 melanoma
[55] = tested on: UACC-62 melanoma
[56] = tested on: UO-31 renal

## CC1CN1C1=CC(=O)c2c(c(CO)cn2C)C1=O (centres undefined)
[1]
  GI50: 0.232 µM
  TGI: 2.52 µM
[2]
  GI50: 0.358 µM
  TGI: 1.76 µM
[3]
  GI50: 0.0623 µM
  TGI: 3.18 µM
[4]
  GI50: 0.293 µM
  TGI: 1.57 µM
[5]
  GI50: 0.018 µM
  TGI: 0.293 µM
[6]
  GI50: 3.35 µM
  TGI: 62.8 µM
[7]
  GI50: 0.171 µM
[8]
  GI50: < 0.0112 µM
  TGI: 0.234 µM
[9]
  GI50: 3.09 µM
  TGI: 17 µM
[10]
  GI50: 0.105 µM
  TGI: 0.415 µM
[11]
  GI50: 0.137 µM
  TGI: 1.03 µM
[12]
  GI50: 0.0651 µM
  TGI: 0.649 µM
[13]
  GI50: 22.9 µM
  TGI: 75.2 µM
[14]
  GI50: 0.062 µM
  TGI: 0.386 µM
[15]
  GI50: 9.92 µM
  TGI: 35.6 µM
[16]
  GI50: 0.689 µM
[17]
  GI50: 0.22 µM
[18]
  GI50: 0.306 µM
  TGI: 5.15 µM
[19]
  GI50: 0.833 µM
  TGI: 64.5 µM
[20]
  GI50: 0.261 µM
  TGI: 1.38 µM
[21]
  GI50: 0.066 µM
  TGI: 0.387 µM
[22]
  GI50: 0.0139 µM
  TGI: 0.127 µM
[23]
  GI50: 0.0634 µM
[24]
  GI50: 20 µM
  TGI: 46.2 µM
[25]
  GI50: 0.311 µM
  TGI: 1.32 µM
[26]
  GI50: 5.43 µM
  TGI: > 100 µM
[27]
  GI50: 0.324 µM
  TGI: 2.1 µM
[28]
  TGI: 0.0265 µM
[29]
  TGI: 0.651 µM
[30]
  GI50: 0.2 µM
  TGI: 1.98 µM
[31]
  GI50: 0.0848 µM
  TGI: 0.926 µM
[32]
  GI50: 0.254 µM
  TGI: 1.11 µM
[33]
  GI50: 1.66 µM
  TGI: 6.34 µM
[34]
  GI50: 1.55 µM
  TGI: 14.8 µM
[35]
  GI50: 0.628 µM
  TGI: > 20.5 µM
[36]
  GI50: 0.313 µM
  TGI: 3.3 µM
[37]
  GI50: 0.241 µM
  TGI: 3.32 µM
[38]
  GI50: 0.861 µM
[39]
  GI50: 0.257 µM
  TGI: 5.28 µM
[40]
  GI50: 0.076 µM
  TGI: 0.566 µM
[41]
  GI50: 0.0313 µM
  TGI: 0.23 µM
[42]
  GI50: 0.3 µM
  TGI: 3.32 µM
[43]
  GI50: 0.491 µM
[44]
  GI50: 0.0577 µM
  TGI: 0.191 µM
[45]
  GI50: 0.509 µM
  TGI: 23.2 µM
[46]
  GI50: 0.0706 µM
  TGI: 1.28 µM
[47]
  GI50: 0.247 µM
  TGI: 3.74 µM
[48]
  GI50: 0.438 µM
  TGI: 2.65 µM
[49]
  GI50: 0.0112 µM
  TGI: 0.069 µM
[50]
  GI50: 0.105 µM
  TGI: 1.02 µM
[51]
  GI50: 8.34 µM
  TGI: > 34.6 µM
[52]
  GI50: 0.261 µM
  TGI: 1.49 µM
[53]
  GI50: 0.152 µM
  TGI: 0.835 µM
[54]
  GI50: 0.925 µM
  TGI: 3.65 µM
[55]
  GI50: 0.144 µM
  TGI: 0.431 µM
[56]
  GI50: 0.124 µM
  TGI: 0.386 µM
